The text below walks through data of US20240245743A1, “USE OF CINNAMOMUM ZEYLANICUM ESSENTIAL OIL (EO) AS HUMAN MELANOMA CELLS DEATH INDUCER AND AS POSSIBLE ADJUVANT IN PHARMACOLOGICAL THERAPIES” (CONSIGLIO NAZIONALE DELLE RICERCHE, priority 2021, published 2024).

Series [1] relates to advanced melanoma, untreated brain metastases, and other solid tumours. Particulars: phase I study; cited from earlier work.
For series [2], the system named is melanoma. Particulars: phase III study; cited from earlier work.
Series [3] deals with M14 cells. The series is described as follows: Colony formation assay. Format: cell-based, human. How it is done: Ten days after seeding, a solution of 2% methylene blue in 95% ethanol was added to the obtained monolayer and incubated for at least 30 minutes. The plates were then washed with ddH2O and the colonies (at least 50 cells) were counted. The results were expressed as a percentage of colonies formed with respect to the number of cells seeded. Cell survival rate was calculated as % compared to control cells.

For series [4] the following is noted: features known in the art; cited from earlier work.
For series [5] the following is noted: rats; cited from earlier work.
For series [6], the system named is M14 cells. Briefly: Intracellular ROS analysis by FACS (H2DCF-DA). Format: cell-based, human. Particulars: EO 10 μg/ml for 24 hours; H2O2 5 mM. As for the experimental part: The generation of ROS species (reactive oxygen species) was analysed by FACS, using the probe sensitive to the oxidant 2 ‘, 7’-dichlorodihydrofluorescein (H2DCF-DA). The C. zeylanicum EO was administered at a dose of 10 μg/ml for 24 hours. […] H2O2 at a concentration of 5 mM was used as a control for the generation of ROS.
On the technique in general: Flow cytometry measures light scatter and fluorescence of single cells or particles in a stream.

For the compound `CC(C)(C)c1nc(-c2cccc(NS(=O)(=O)c3c(F)cccc3F)c2F)c(-c2ccnc(N)n2)s1` [dabrafenib], in series [1], the ORR is recorded as 47%. Further, in series [2], the “ORR (objective response rate)” value is reported as 53% and the “median PFS (progression free survival)” value is given as 5.1 months.
As for `CC(=O)O[C@H]1C(=O)[C@@]2(C)[C@H]([C@H](OC(=O)c3ccccc3)[C@]3(O)C[C@H](OC(=O)[C@H](O)[C@@H](NC(=O)c4ccccc4)c4ccccc4)C(C)=C1C3(C)C)[C@]1(OC(C)=O)CO[C@@H]1C[C@@H]2O` [Taxol, Paclitaxel], the “induction of cell death in M14 cells” value in series [3] (24 hours treatment, EO 10 μg/ml) is listed as “less than 10%”.
Turning to `O=c1ccc2ccccc2o1` [Coumarin], the “toxicity (liver, kidney) / general safety” value in series [4] is “can cause liver and kidney damage”.
For `O=CC=Cc1ccccc1` [cinnamaldehyde], the “cell survival (colonies vs untreated control)” value in series [3] (M14 cells, 24 hours treatment) was determined as 64.3%.
Take `CC/C(=C(\c1ccccc1)c1ccc(OCCN(C)C)cc1)c1ccccc1` [TAM, Tamoxifen]: the “survival of M14 cells compared to control” value in series [3] (EO 10 μg/ml, TAM 0, 1 μM, 24 hours) is recorded as “no significant differences in survival compared to control”.
On to `C=CCc1ccc2c(c1)OCO2` [Safrole], for which, in series [5], the carcinogenicity result is reported as “weak carcinogenicity”.
In the case of `OO` [H2O2, hydrogen peroxide], in series [6], the “oxidative stress (intracellular ROS) in M14 cells compared with PBMCs” value is given as “greater oxidative stress”.
